From patent publication US20210393811A1, “Imaging Agents and Methods of Use” (Texas Heart Institute, priority 2018, published 2021) come the findings set out here.

As a reminder, the IC50 is the concentration needed to halve the response being measured.

The structures appear in SMILES notation. Bounds are passed on as bounds.

Assay [1] concerns the target T1, murine integrin α4β1 (Mus musculus, UniProt P09055+Q00651).
T1 construct: endogenous in cells; host or cells: 70Z3 cells
As to the kind of experiment: 70Z3 cell adhesion to VCAM-1. Format: cell-based.

For assay [2], the target named is T2, integrin α4β1 (Homo sapiens, UniProt P05556+P13612). As to the kind of experiment: K562(α4β1) cell adhesion to CS-1. It counts as cell-based. On the set-up: expressed in transfected cells; host or cells: K562(α4β1) cells. An excerpt:
A. Structure of TBC3486. B. Structure of THI0510 (TBC3486 modified with conjugatable linker [TBC3486-conj] for functionalization with reactive dye and/or chelator reagents). C. TBC3486 and THI0510 inhibition of α4β1-K562 cell adhesion to the CS-1 sequence from fibronectin.
A. Conjugated THI375 analogue. B. THI375 analogue conjugated to the fluorescent dye sulfo-Cy5 (THI526). C. Activity of THI527, THI526, and TBC-4746 in K562-α4β1/CS-1 adhesion assays performed in Mn++.
First attempts to generate an integrin α4β1 imaging agent took advantage of the TBC3486 core scaffold. Modifications to the core scaffold were generated to determine an appropriate site to which imaging conjugates could be attached (FIG. 1). […] Next, imaging agents were attached to this conjugation site and their activities tested in cell adhesion assays.

The target in assay [3] is T2, integrin α4β1. As to the kind of experiment: K562(α4β1) cell adhesion to VCAM-1. Format: cell-based. On the set-up: expressed in transfected cells; host or cells: K562(α4β1) cells. How it is done:
A, B. Structure of THI520 and THI528. C. THI520 and THI0528 inhibition of α4β1-K562 cell adhesion to VCAM-1 (Mn++).
(§1) The core of this structure is different than that of TBC3486 (FIG. 3A). […] THI528 was tested for binding to integrin α4β1by flow cytometry (FIG. 4). Jurkat cells that express the integrin α4β1 (Jurkat(α4β1)), or mutagenized Jurkat cells that no longer express the integrin α4β1 (Jurkat(α4^null)), where incubated with increasing concentrations of THI528.

In assay [4] the target is T2, integrin α4β1. As to the kind of experiment: Flow cytometry binding to Jurkat cells. Conditions: for IC50: Jurkat, Flow Cytometry, Human. The procedure: B. Individual histograms of 10 nM dose of THI528±EDTA.
as §1

Assay [5] addresses T1, murine integrin α4β1. As to the kind of experiment: Flow cytometry binding to 70Z3 cells. Particulars: 70Z3, Flow Cytometry, cations Mn. (In general: In flow cytometry, cells or beads pass a laser one at a time.)
Assay [6] deals with T2, integrin α4β1. As to the kind of experiment: Flow cytometry binding to K562(α4β1) cells. Particulars: cations Mn. On the set-up: expressed in transfected cells; host or cells: K562(α4β1) cells.
Setting [7] is: 70Z3, substrate VCAM-1, cations Ca/Mg.
The mark [8] stands for this setting: 70Z3, substrate VCAM-1, cations Mn.
Where [9] appears, read: K562(α4β1), substrate CS-1, cations Mn, Human.
Where [10] appears, read: K562(α4β1), substrate VCAM-1, cations Ca/Mg, Human (low affinity α4β1 adhesion assay), read-out: Activity (IC50) (converted).

T1 sequence (Q00651 41-1039): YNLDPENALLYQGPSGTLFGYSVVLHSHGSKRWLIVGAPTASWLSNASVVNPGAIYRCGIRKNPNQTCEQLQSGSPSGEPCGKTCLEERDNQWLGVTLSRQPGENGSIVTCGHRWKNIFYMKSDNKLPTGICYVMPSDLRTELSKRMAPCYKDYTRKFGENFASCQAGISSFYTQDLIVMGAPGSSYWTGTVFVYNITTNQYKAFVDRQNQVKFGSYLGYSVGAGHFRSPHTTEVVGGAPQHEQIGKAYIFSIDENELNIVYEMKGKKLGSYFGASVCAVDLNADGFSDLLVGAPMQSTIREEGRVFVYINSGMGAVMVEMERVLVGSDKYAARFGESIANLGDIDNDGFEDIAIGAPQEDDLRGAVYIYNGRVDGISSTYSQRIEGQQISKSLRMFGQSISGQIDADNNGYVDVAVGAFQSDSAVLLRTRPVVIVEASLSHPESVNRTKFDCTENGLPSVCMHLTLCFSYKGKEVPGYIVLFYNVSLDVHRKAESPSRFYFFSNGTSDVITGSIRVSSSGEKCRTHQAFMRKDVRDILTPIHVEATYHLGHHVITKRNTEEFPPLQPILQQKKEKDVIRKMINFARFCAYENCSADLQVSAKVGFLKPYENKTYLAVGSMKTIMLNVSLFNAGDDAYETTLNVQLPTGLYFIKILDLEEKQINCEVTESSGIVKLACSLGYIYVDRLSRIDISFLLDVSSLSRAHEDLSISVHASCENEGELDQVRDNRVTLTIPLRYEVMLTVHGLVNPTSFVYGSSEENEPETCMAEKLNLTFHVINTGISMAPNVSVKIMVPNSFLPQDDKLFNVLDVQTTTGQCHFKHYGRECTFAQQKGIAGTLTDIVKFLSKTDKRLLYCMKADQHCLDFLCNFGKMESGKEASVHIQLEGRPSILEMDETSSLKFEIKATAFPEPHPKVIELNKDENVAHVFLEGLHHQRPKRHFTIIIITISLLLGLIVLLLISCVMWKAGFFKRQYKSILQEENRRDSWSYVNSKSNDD
T1 sequence (P09055 21-798): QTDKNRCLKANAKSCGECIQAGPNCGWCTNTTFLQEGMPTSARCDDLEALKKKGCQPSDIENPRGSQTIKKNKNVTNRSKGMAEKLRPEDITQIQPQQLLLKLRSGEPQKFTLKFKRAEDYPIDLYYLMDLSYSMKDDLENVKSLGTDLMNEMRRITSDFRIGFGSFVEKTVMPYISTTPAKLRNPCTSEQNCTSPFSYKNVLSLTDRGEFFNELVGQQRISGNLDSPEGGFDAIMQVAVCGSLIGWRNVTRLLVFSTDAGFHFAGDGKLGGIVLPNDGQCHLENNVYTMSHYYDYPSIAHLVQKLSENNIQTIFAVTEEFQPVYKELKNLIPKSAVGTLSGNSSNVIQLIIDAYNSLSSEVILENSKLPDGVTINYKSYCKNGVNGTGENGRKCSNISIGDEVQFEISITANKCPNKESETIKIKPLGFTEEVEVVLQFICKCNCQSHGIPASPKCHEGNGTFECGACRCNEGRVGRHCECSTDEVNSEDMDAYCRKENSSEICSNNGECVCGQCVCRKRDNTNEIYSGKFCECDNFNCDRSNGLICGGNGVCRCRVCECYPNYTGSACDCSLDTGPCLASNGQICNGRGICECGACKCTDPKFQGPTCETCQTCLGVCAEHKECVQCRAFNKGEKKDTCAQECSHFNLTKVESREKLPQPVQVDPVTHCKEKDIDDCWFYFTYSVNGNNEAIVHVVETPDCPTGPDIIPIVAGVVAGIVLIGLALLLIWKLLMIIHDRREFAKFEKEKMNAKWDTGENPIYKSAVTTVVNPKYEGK
T2 sequence (P13612 34-1032): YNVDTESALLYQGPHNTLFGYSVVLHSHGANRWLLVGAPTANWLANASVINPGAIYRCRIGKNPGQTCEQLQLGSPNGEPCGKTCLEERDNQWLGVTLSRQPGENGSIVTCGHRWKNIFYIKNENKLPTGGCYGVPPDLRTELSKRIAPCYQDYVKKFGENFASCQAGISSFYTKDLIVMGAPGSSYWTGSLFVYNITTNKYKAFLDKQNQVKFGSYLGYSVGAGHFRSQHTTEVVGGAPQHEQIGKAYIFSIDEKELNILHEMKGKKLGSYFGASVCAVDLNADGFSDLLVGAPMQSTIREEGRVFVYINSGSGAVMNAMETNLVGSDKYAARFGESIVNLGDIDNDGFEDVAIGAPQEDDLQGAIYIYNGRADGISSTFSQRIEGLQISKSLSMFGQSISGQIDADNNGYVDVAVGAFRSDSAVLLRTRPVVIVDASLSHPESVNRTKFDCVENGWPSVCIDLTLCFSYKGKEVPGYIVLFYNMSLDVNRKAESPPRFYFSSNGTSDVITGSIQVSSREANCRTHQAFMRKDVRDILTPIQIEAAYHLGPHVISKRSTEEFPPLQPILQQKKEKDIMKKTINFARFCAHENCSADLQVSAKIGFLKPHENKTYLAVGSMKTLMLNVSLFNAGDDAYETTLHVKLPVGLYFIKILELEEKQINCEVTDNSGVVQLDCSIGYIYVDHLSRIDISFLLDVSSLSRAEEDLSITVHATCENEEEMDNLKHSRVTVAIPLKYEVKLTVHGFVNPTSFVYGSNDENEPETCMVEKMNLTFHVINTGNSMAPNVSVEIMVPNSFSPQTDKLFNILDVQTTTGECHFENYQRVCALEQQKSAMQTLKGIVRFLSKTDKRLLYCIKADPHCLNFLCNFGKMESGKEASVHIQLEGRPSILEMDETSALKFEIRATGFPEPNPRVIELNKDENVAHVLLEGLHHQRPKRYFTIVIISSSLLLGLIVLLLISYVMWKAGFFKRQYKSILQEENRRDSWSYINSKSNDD
T2 sequence (P05556 21-798): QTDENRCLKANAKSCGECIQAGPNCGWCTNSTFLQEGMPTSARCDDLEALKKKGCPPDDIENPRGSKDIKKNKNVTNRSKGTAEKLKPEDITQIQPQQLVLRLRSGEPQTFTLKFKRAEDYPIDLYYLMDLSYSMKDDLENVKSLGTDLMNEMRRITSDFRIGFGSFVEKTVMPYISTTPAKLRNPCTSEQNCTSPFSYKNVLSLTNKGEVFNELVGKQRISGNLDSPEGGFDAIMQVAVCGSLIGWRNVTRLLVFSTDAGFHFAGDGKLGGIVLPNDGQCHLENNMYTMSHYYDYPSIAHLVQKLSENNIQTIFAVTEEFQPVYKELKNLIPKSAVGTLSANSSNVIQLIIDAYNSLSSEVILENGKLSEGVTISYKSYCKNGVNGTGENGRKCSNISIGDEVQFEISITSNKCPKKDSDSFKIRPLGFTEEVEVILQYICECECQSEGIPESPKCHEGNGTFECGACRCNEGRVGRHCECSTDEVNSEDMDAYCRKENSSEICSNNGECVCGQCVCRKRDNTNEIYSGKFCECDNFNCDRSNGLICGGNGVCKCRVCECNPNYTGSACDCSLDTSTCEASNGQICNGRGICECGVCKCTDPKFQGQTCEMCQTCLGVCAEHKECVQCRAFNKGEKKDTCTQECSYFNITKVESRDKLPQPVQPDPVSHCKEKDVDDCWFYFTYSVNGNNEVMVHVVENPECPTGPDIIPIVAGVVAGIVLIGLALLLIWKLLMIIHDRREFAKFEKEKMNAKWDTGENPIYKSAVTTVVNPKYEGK

As for `Cc1ccc([C@H](CC(=O)O)NC(=O)Nc2c(O)c(C)cn(Cc3ccccc3Cl)c2=O)cc1` [THI375], the IC50 against murine integrin α4β1 [1] (setting [7]) was 10300 nM; at murine integrin α4β1 [1] (setting [8]) it was 127 nM; against integrin α4β1 [2] (setting [9]), 2.2 ± 0.53 nM; at integrin α4β1 [3] (setting [10]), 810 nM; at integrin α4β1 [3] (K562(α4β1), substrate VCAM-1, cations Mn, Human, read-out: Activity (IC50) (converted)), 1.4 nM.
`CCOc1cccc([C@H](CC(=O)O)NC(=O)Nc2c(OCCCCCCNC(=O)CCCCC[N+]3=C(/C=C/C=C/C=C4/N(C)c5ccc(S(=O)(=O)[O-])cc5C4(C)C)C(C)(C)c4cc(S(=O)(=O)[O-])ccc43)c(C)cn(Cc3c(Cl)cccc3OCC)c2=O)c1.[Na+]` [THI528]: the Kd at integrin α4β1 [4] (Jurkat(α4β1) cells, flow cytometry, n=1, read-out: apparent Kd) was 0.26 nM. The IC50 on integrin α4β1 [4] (cations Ca/Mg) is 0.202 nM; at integrin α4β1 [4] (cations Mn), 0.069 nM; at murine integrin α4β1 [5], 0.06 nM; on integrin α4β1 [3] (n=3, same value as Table 2 K562(α4β1)/VCAM-1/Mn, read-out: a4b1 IC50) it was 0.519 ± 0.097 nM. Also, at integrin α4β1 [4] (flow cytometry, increasing concentrations), the “binding to Jurkat cells expressing α4β1” value was “Specific and saturable binding”. Besides, the “binding in presence of EDTA or to Jurkat cells lacking α4β1” value on integrin α4β1 [4] (flow cytometry, EDTA or Jurkat(α4β1) cells as printed) was “no detectable binding”. Moreover, on integrin α4β1 [3] (compared with THI520), the “antagonist activity after conjugation to sulfo-Cy5” value was “no apparent loss in antagonist activity”.
Turning to `C[N+]1=C(/C=C/C=C/C=C2/N(CCCCCC(=O)NCCCCCC(=O)NCCCC[C@@H](NC(=O)N[C@H](CC(=O)O)c3ccc4c(c3)OCO4)C(=O)N(Cc3cccs3)Cc3cccs3)c3ccc(S(=O)(=O)[O-])cc3C2(C)C)C(C)(C)c2cc(S(=O)(=O)O)ccc21` [THI517], the values for the IC50 against integrin α4β1 [2] (setting [9]) and at integrin α4β1 [6] were 1700 ± 1000 nM and greater than 1000 nM, respectively.
For `CCOc1cccc([C@H](CC(=O)[O-])NC(=O)Nc2c([O-])c(C)cn(Cc3c(Cl)cccc3OCC)c2=O)c1.[Na+].[Na+]` [THI520], the IC50 was 129 nM at murine integrin α4β1 [1] (setting [7]), 0.75 nM against murine integrin α4β1 [1] (setting [8]), 0.11 ± 0.04 nM against integrin α4β1 [2] (setting [9]) and 6.3 ± 3.1 nM at integrin α4β1 [3] (setting [10]). The “activity in high affinity assays” value on integrin α4β1 [2] (high affinity α4β1 adhesion assays) was “pM activity”.
Turning to `C[N+]1=C(/C=C/C=C/C=C2/N(CCCCCC(=O)NCCCCCC(=O)O)c3ccc(S(=O)(=O)[O-])cc3C2(C)C)C(C)(C)c2cc(S(=O)(=O)[O-])ccc21.[Na+]` [THI529], the “Activity (IC50)” value on integrin α4β1 [2] (K562(α4β1), substrate CS-1, cations Mn, Human, result in words) is “No Activity (n = 3) K562(α4β1)”.
In the case of `CCOc1cccc([C@H](CC(=O)O)NC(=O)Nc2c(OCCCCCCNC(=O)C(CNC(=O)C(CNC(=O)CCCCC[N+]3=C(/C=C/C=C/C=C4/N(C)c5ccc(S(=O)(=O)[O-])cc5C4(C)C)C(C)(C)c4cc(S(=O)(=O)O)ccc43)S(=O)(=O)O)S(=O)(=O)O)c(C)cn(Cc3c(Cl)cccc3OCC)c2=O)c1` (stereo partly shown) [THI540], the IC50 on integrin α4β1 [4] (cations Mn) worked out at 0.078 ± 0.037 nM.
